Test results reported in paper PMC3523469 (Investigational New Drugs, 2012).
Read-outs that look alike come from different tables or passages of the source.

Assay type: in vivo, Japanese patients
[1] = across all dose levels, 13 patients

Compound: COc1cc2ncnc(Nc3ccc(F)c(Cl)c3)c2cc1NC(=O)/C=C/CN1CCCCC1 [dacomitinib, Dacomitinib]
- Alanine aminotransferase increased, number of patients with treatment-related AE (45 mg QD (n = 7), G3): 1
- Aspartate aminotransferase increased, number of patients with treatment-related AE (45 mg QD (n = 7), G3): 1
- Blood bilirubin increased, number of patients with treatment-related AE (45 mg QD (n = 7), G3): 1
- Cheilitis, number of patients with treatment-related AE (45 mg QD (n = 7), G3): 0
- Conjunctivitis, number of patients with treatment-related AE (45 mg QD (n = 7), G3): 0
- Decreased appetite, number of patients with treatment-related AE (45 mg QD (n = 7), G3): 1
- Diarrhea, number of patients with treatment-related AE (45 mg QD (n = 7), G3): 0
- Dry skin, number of patients with treatment-related AE (45 mg QD (n = 7), G3): 0
- ECG QT prolonged, number of patients with treatment-related AE (45 mg QD (n = 7), G3): 0
- Edema, number of patients with treatment-related AE (45 mg QD (n = 7), G3): 0
- Fatigue, number of patients with treatment-related AE (45 mg QD (n = 7), G3): 0
- Hematuria, number of patients with treatment-related AE (45 mg QD (n = 7), G3): 0
- Hypertrichosis, number of patients with treatment-related AE (45 mg QD (n = 7), G3): 0
- Leukopenia, number of patients with treatment-related AE (45 mg QD (n = 7), G3): 0
- Nausea, number of patients with treatment-related AE (45 mg QD (n = 7), G3): 0
- Palmar–plantar erythrodysesthesia, number of patients with treatment-related AE (45 mg QD (n = 7), G3): 0
- Paronychia, number of patients with treatment-related AE (45 mg QD (n = 7), G3): 0
- Proteinuria, number of patients with treatment-related AE (45 mg QD (n = 7), G3): 0
- Rash, number of patients with treatment-related AE (45 mg QD (n = 7), G3): 2
- Skin fissures, number of patients with treatment-related AE (45 mg QD (n = 7), G3): 0
- Stomatitis, number of patients with treatment-related AE (45 mg QD (n = 7), G3): 0
- Weight decreased, number of patients with treatment-related AE (45 mg QD (n = 7), G3): 0
- device-related infection, treatment-related grade 3 AE, number (45 mg dosing cohort): 1
- treatment-related grade 3 AEs, number (45 mg dosing cohort): seven
- Dose-limiting toxicity (DLT) (15, 30, 45 mg QD, single dose to day 21 of cycle 1, 12 patients evaluated): no DLTs observed at any dose
- clinically recommended phase II dose (RP2D) (Japanese patients with advanced solid tumors): 45 mg QD
- Alanine aminotransferase increased, % of patients with treatment-related AE (Total (N = 13)): 15%
- Alanine aminotransferase increased, number of patients with treatment-related AE (Total (N = 13)): 2
- Aspartate aminotransferase increased, % of patients with treatment-related AE (Total (N = 13)): 15%
- Aspartate aminotransferase increased, number of patients with treatment-related AE (Total (N = 13)): 2
- Blood bilirubin increased, % of patients with treatment-related AE (Total (N = 13)): 15%
- Blood bilirubin increased, number of patients with treatment-related AE (Total (N = 13)): 2
- Cheilitis, % of patients with treatment-related AE (Total (N = 13)): 38%
- Cheilitis, number of patients with treatment-related AE (Total (N = 13)): 5
- Conjunctivitis, % of patients with treatment-related AE (Total (N = 13)): 31%
- Conjunctivitis, number of patients with treatment-related AE (Total (N = 13)): 4
- Decreased appetite, % of patients with treatment-related AE (Total (N = 13)): 23%
- Decreased appetite, number of patients with treatment-related AE (Total (N = 13)): 3
- Diarrhea, % of patients with treatment-related AE (Total (N = 13)): 92%
- Diarrhea, number of patients with treatment-related AE (Total (N = 13)): 12
- Dry skin, % of patients with treatment-related AE (Total (N = 13)): 61.5%
- Dry skin, number of patients with treatment-related AE (Total (N = 13)): 8
- ECG QT prolonged, % of patients with treatment-related AE (Total (N = 13)): 15%
- ECG QT prolonged, number of patients with treatment-related AE (Total (N = 13)): 2
- Edema, % of patients with treatment-related AE (Total (N = 13)): 15%
- Edema, number of patients with treatment-related AE (Total (N = 13)): 2
- Fatigue, % of patients with treatment-related AE (Total (N = 13)): 46%
- Fatigue, number of patients with treatment-related AE (Total (N = 13)): 6
- Hematuria, % of patients with treatment-related AE (Total (N = 13)): 15%
- Hematuria, number of patients with treatment-related AE (Total (N = 13)): 2
- Hypertrichosis, % of patients with treatment-related AE (Total (N = 13)): 15%
- Hypertrichosis, number of patients with treatment-related AE (Total (N = 13)): 2
- Leukopenia, % of patients with treatment-related AE (Total (N = 13)): 23%
- Leukopenia, number of patients with treatment-related AE (Total (N = 13)): 3
- Nausea, % of patients with treatment-related AE (Total (N = 13)): 23%
- Nausea, number of patients with treatment-related AE (Total (N = 13)): 3
- Palmar–plantar erythrodysesthesia, % of patients with treatment-related AE (Total (N = 13)): 38%
- Palmar–plantar erythrodysesthesia, number of patients with treatment-related AE (Total (N = 13)): 5
- Paronychia, % of patients with treatment-related AE (Total (N = 13)): 69%
- Paronychia, number of patients with treatment-related AE (Total (N = 13)): 9
- Proteinuria, % of patients with treatment-related AE (Total (N = 13)): 23%
- Proteinuria, number of patients with treatment-related AE (Total (N = 13)): 3
- Rash, % of patients with treatment-related AE (Total (N = 13)): 100%
- Rash, number of patients with treatment-related AE (Total (N = 13)): 13
- Skin fissures, % of patients with treatment-related AE (Total (N = 13)): 15%
- Skin fissures, number of patients with treatment-related AE (Total (N = 13)): 2
- Stomatitis, % of patients with treatment-related AE (Total (N = 13)): 61.5%
- Stomatitis, number of patients with treatment-related AE (Total (N = 13)): 8
- Weight decreased, % of patients with treatment-related AE (Total (N = 13)): 23%
- Weight decreased, number of patients with treatment-related AE (Total (N = 13)): 3
- diarrhea, all-causality AE, number of patients [1]: 12
- dry skin, all-causality AE, number of patients [1]: 8
- paronychia, all-causality AE, number of patients [1]: 9
- rash, all-causality AE, number of patients [1]: 13
- stomatitis, all-causality AE, number of patients [1]: 8
- grade 4 or 5 treatment-related adverse events (all cohorts, all cycles): ^aThere were no grade 4 or 5 treatment-related adverse events
- grade 4 AEs (all dose levels): No grade 4 AEs were reported
- patients requiring temporary discontinuations due to TRAEs, number (all in the 45 mg dosing cohort): five
- prolonged QTcF interval, change from baseline (one patient, 15 mg cohort, day 1 cycle 1, grade 1): 26 ms
- treatment-related grade 3 AEs, number (overall): eight
- AEs observed in ≥1 patient during the single-dose administration phase (single-dose administration phase): rash and diarrhea
